Measured values from patent US8722088B2, “Pharmaceutical compositions and methods for the treatment of prostate cancer” (Ferring International Center S.A., priority 2009, dated 2014).
Entries after “also recorded” stand apart in the source; their conditions may differ. Where two headings read alike, the source gives them in different places. Where a SMILES comes first, the peptide text is derived from it. [ ]: non-standard residue; d: D form. The star is where a group is joined. dPhe(4-NHCONH2) = NC(=O)Nc1ccc(C[C@@H](N)C(=O)O)cc1; Dihydroorotyl(S) = O=C1C[C@@H](C(=O)*)NC(=O)N1; dPhe(4-Cl) = N[C@H](Cc1ccc(Cl)cc1)C(=O)O; Phe(4-NH2) = Nc1ccc(C[C@H](N)C(=O)O)cc1; d2Nal = N[C@H](Cc1ccc2ccccc2c1)C(=O)O; Lys(iPr) = CC(C)NCCCC[C@H](N)C(=O)O; d3Pal = N[C@H](Cc1cccnc1)C(=O)O

Tests used:
[1] = human, in vivo
From the text: At the data cut-off date (i.e., seven months after commence of the clinical trial), 133 patients with prostate cancer were exposed to degarelix in the Phase 2, three-month dosing regimen clinical program (CS18).

[2] = system: serum testosterone; assay: One-month dosing regimen clinical program: testosterone suppression to castrate level; assay type: in vivo, human; conditions: for testosterone response rate: Day 28 to Day 364
Method: Other studies establish that degarelix or pharmaceutically acceptable salt thereof at a dose of 240 mg (40 mg/mL) is an effective starting dose. […] With dosing at 0 months and an additional dosage at 1 month, it is believed that a steady state level is reached faster and this is (together with formulation, dose and concentration) a factor for consideration to obtain and maintain therapeutic levels in the patient. Use of a higher dose as the starting dose to have a ‘true’ 3 month depot is not feasible because of the combined requirements of a sufficient starting/loading phase release to allow buildup of degarelix plasma concentration; and at the same time sufficient long term release to achieve sufficiently high steady state concentration for 3 months. […] This is surprising given the high doses (and concentrations) of degarelix in the defined maintenance dose(s).

[3] = male, human, in vivo, sc
Method: (§2) The present study included a starting degarelix dose of 240 mg (with a concentration of 40 mg/mL of solvent), followed by maintenance doses of degarelix: i.e., 360 mg (with a concentration of 60 mg/mL of solvent) or 480 mg (with a concentration of 60 mg/mL of solvent), the latter administered at Months 1, 4, 7, and 10.
(§3) The study was open labeled and patients received a starting dose of 240 mg (with a concentration of 40 mg/mL of solvent) at Month 0 followed by one of two degarelix maintenance dose treatment regimens: 360 mg (with a concentration of 60 mg/mL of solvent) at Months 1, 4, 7, and 10; or 480 mg (with a concentration of 60 mg/mL of solvent) at Months 1, 4, 7, and 10.
(§4) The starting dose was administered subcutaneously as two injections of 120 mg (with a concentration of 40 mg/ml of solvent, given as 2×3 mL injections). After 28 days a maintenance dose of 360 mg (with a concentration of 60 mg/mL, given as 2×3 mL injections) or 480 mg (with a concentration of 60 mg/mL, given as 2×4 mL injections) was administered, also in two injections (each of 240 mg). Thereafter, with three monthly intervals, maintenance doses were given, again in the form of two injections. […] At each visit, serum testosterone, prostate specific androgen (PSA), and plasma concentration of degarelix were measured by techniques well known in the art.

[4] = clinical; conditions: human, in vivo
From the text: (§1) Throughout the ongoing degarelix development program, population pharmacokinetic/pharmacodynamic (PK/PD) modeling and simulations have been employed to get a better understanding of the PK and PD data, and the relationship between these and other parameters. […] Because of the variability in the population, it was considered that this median plasma concentration might not be sufficient to maintain long-term testosterone suppression in approximately 95% of the patients. It was therefore proposed that the dose administered should produce mean serum trough degarelix levels of >9 ng/ml or higher in the Phase 3 studies for the one-month dosing regimen program.

[5] = system: serum testosterone; assay: Previous studies, population PK/PD: proportion of patients with serum testosterone ≦0.5 ng/mL versus plasma degarelix concentration; assay type: in vivo, human
From the text: as §1
The relationship between proportion of patients castrated [(T)≦0.5 ng/mL] and degarelix concentration after day 28 is illustrated in FIG. 1. FIG. 1 is based on data from 1473 prostate cancer patients in clinical studies by dividing PK levels into intervals 0-1, 1-2, 2-3 ng/mL and so forth and plotting observed proportions against PK interval midpoints together with a smoothing line with 95% confidence interval (CI). Based on this information, approximately 97% of the patients are castrated provided that degarelix concentrations stay above a threshold value of 9-10 ng/mL.

[6] = clinical; conditions: human, in vivo, 240 mg
Method: A three-month dosing regimen Phase 2 study investigated three different dosing regimens. After a starting dose of […] (with a concentration of 40 mg/mL of solvent), a further dose (i.e., maintenance dose) of 240 mg was given on Day 28, and then at Months 3, 6, and 9 or at Months 4, 7, and 10. Maintenance doses of 240 mg were evaluated initially at concentrations of 40 mg/mL and 60 mg/mL in this study, based on the observed results by different PK profiles of different concentrations. The patients were randomized in parallel to one of three different three-month maintenance dosing regimens of degarelix:
Thus, patients with lower degarelix plasma levels were more likely to have a testosterone level>0.5 ng/mL during the one year treatment period. […] This is consistent with the observation that for most patients, the time of first occurrence of a testosterone level>0.5 ng/mL was three months after a previous dose, at the time of trough degarelix plasma levels. The median trough degarelix plasma levels in the study ranged from about 6.5-7.5 ng/mL.

[7] = human, in vivo, 80 mg
[8] = system: serum testosterone; assay: Clinical trial CS18 (Phase 2, three-month dosing regimen): serum testosterone ≦0.5 ng/mL; assay type: in vivo, human; conditions: for cumulative probability of testosterone ≦0.5 ng/mL, Kaplan-Meier estimate / number of patients with testosterone > 0.5 ng/mL: Day 28 to Day 364; for cumulative probability of testosterone ≦0.5 ng/mL, Kaplan-Meier estimate / proportion of patients with testosterone ≦0.5 ng/mL: ITT
Method: as §2, §3, §4

[9] = clinical; conditions: male, human, in vivo, sc
Method: as §2, §3, §4

CC(=O)N[C@H](Cc1ccc2ccccc2c1)C(=O)N[C@H](Cc1ccc(Cl)cc1)C(=O)N[C@H](Cc1cccnc1)C(=O)N[C@@H](CO)C(=O)N[C@@H](Cc1ccc(NC(=O)[C@@H]2CC(=O)NC(=O)N2)cc1)C(=O)N[C@H](Cc1ccc(NC(N)=O)cc1)C(=O)N[C@@H](CC(C)C)C(=O)N[C@@H](CCCCNC(C)C)C(=O)N1CCC[C@H]1C(=O)N[C@H](C)C(N)=O [Degarelix, D-Alaninamide, N-acetyl-3-(2-naphthalenyl)-D-alanyl-4-chloro-D-phenylalanyl-3-(3-pyridinyl)-D-alanyl-L-seryl-4-[[[(4S)-hexahydro-2,6-dioxo-4-pyrimidinyl]carbonyl]amino]-L-phenylalanyl-4-[(aminocarbonyl)amino]-D-phenylalanyl-L leucyl-N6-(1-methylethyl)-L-lysyl-L-prolyl] (Ac-[d2Nal][dPhe(4-Cl)][d3Pal]S[Phe(4-NH2)](Dihydroorotyl(S))[dPhe(4-NHCONH2)]L[Lys(iPr)]P[dA]-NH2)
hepatotoxicity: impairment of liver function [1]: do not show any clinically significant impairment of liver function
immediate anaphylactic reactions [1]: no immediate anaphylactic reactions reported
incidence of any injection site reaction [1]: 26%
injection site reactions of mild intensity [1]: 11%
injection site reactions of moderate intensity [1]: 11%
patients reporting severe injection site reactions [1]: 5%
sustained testosterone suppression for 3 months following an injection ([2]; doses of 240 mg, 160 mg or 80 mg): failed to sustain testosterone suppression for 3 months; also recorded: none of the doses tested in the one-month dosing regimen program could sustain testosterone suppression for 3 months
testosterone response rate ([2]; monthly maintenance 80 mg (20 mg/mL)): 98%
testosterone response rate ([2]; monthly maintenance 160 mg (40 mg/mL)): 100%
patients with testosterone suppressed to castrate level (T≦0.5 ng/mL) ([2]; starting dose 240 mg (40 mg/mL), first 28 days): 95%
estimated median degarelix trough concentration ([3]; 360 mg): above 9 ng/mL
estimated median degarelix trough concentration ([3]; 480 mg): above 9 ng/mL
level at 672 h [4]: 7.34 ng/mL
level at 2016 h [4]: 4.54 ng/mL
patients achieving serum testosterone ≦0.5 ng/mL ([5]; Day 28, median trough plasma degarelix 7.34 ng/mL): 96%
patients having testosterone ≦0.5 ng/mL ([5]; Day 84, median plasma degarelix 4.54 ng/mL): 83%
estimated median degarelix trough concentration [6]: < 9 ng/mL
level at 1 year [6]: ~7 ng/mL
level at 3 months after a previous dose [6]: 6.5 to 7.5 ng/mL
mean trough levels of degarelix [7]: approximately 12 ng/mL
cumulative probability of testosterone ≦0.5 ng/mL, Kaplan-Meier estimate ([8]; 360 mg (60 mg/mL) maintenance Months 1,4,7,10 after 240 mg start): 89.0%
cumulative probability of testosterone ≦0.5 ng/mL, Kaplan-Meier estimate ([8]; 360 mg (60 mg/mL) maintenance Months 1,4,7,10 after 240 mg start, listed as degarelix): 89.0%
patients with sustained testosterone suppression over the course of the observed time period ([8]; 360 mg (60 mg/mL) maintenance dose): at least 90%
cumulative probability of testosterone ≦0.5 ng/mL, Kaplan-Meier estimate ([8]; 480 mg (60 mg/mL) maintenance Months 1,4,7,10 after 240 mg start): 93.3%
cumulative probability of testosterone ≦0.5 ng/mL, Kaplan-Meier estimate ([8]; 480 mg (60 mg/mL) maintenance Months 1,4,7,10 after 240 mg start, listed as degarelix): 93.3%
patients with sustained testosterone suppression over the course of the observed time period ([8]; 480 mg (60 mg/mL) maintenance dose): > 95%
coverage probability (confidence of true suppression rate being greater than 90%) ([8]; 360/60 mg): 39.7%
proportion of patients with testosterone ≦0.5 ng/mL ([8]; 360/60 mg, Day 28): 98.5%
proportion of patients with testosterone ≦0.5 ng/mL ([8]; 360/60 mg, Day 56): 100%
proportion of patients with testosterone ≦0.5 ng/mL ([8]; 360/60 mg, Day 84): 100%
proportion of patients with testosterone ≦0.5 ng/mL ([8]; 360/60 mg, Day 112): 96.8%
proportion of patients with testosterone ≦0.5 ng/mL ([8]; 360/60 mg, Day 140): 100%
proportion of patients with testosterone ≦0.5 ng/mL ([8]; 360/60 mg, Day 168): 98.4%
proportion of patients with testosterone ≦0.5 ng/mL ([8]; 360/60 mg, Day 196 (before re-dosing at Month 7)): 90.6%
proportion of patients with testosterone ≦0.5 ng/mL ([8]; 360/60 mg, Day 196 (before re-dosing at Month 7), listed as degarelix): 90.6%
proportion of patients with testosterone ≦0.5 ng/mL ([8]; 360/60 mg, Day 224): 98.4%
proportion of patients with testosterone ≦0.5 ng/mL ([8]; 360/60 mg, Day 252): 98.4%
proportion of patients with testosterone ≦0.5 ng/mL ([8]; 360/60 mg, Day 280 (before re-dosing at Month 10)): 93.3%
proportion of patients with testosterone ≦0.5 ng/mL ([8]; 360/60 mg, Day 280 (before re-dosing at Month 10), listed as degarelix): 93.3%
proportion of patients with testosterone ≦0.5 ng/mL ([8]; 360/60 mg, Day 308): 100%
proportion of patients with testosterone ≦0.5 ng/mL ([8]; 360/60 mg, Day 336): 96.7%
proportion of patients with testosterone ≦0.5 ng/mL ([8]; 360/60 mg, Day 364): 95.0%
number of patients with testosterone > 0.5 ng/mL ([8]; 360/60 mg, N=67): 7
coverage probability (confidence of true suppression rate being greater than 90%) ([8]; 360/60 mg, listed as degarelix): 39.7%
coverage probability (confidence of true suppression rate being greater than 90%) ([8]; 480/60 mg): 79.9%
proportion of patients with testosterone ≦0.5 ng/mL ([8]; 480/60 mg, Day 28): 98.4%
proportion of patients with testosterone ≦0.5 ng/mL ([8]; 480/60 mg, Day 56): 98.4%
proportion of patients with testosterone ≦0.5 ng/mL ([8]; 480/60 mg, Day 84): 98.4%
proportion of patients with testosterone ≦0.5 ng/mL ([8]; 480/60 mg, Day 112): 96.7%
proportion of patients with testosterone ≦0.5 ng/mL ([8]; 480/60 mg, Day 140): 98.3%
proportion of patients with testosterone ≦0.5 ng/mL ([8]; 480/60 mg, Day 168): 98.3%
proportion of patients with testosterone ≦0.5 ng/mL ([8]; 480/60 mg, Day 196): 98.3%
proportion of patients with testosterone ≦0.5 ng/mL ([8]; 480/60 mg, Day 224): 98.3%
proportion of patients with testosterone ≦0.5 ng/mL ([8]; 480/60 mg, Day 252): 100%
proportion of patients with testosterone ≦0.5 ng/mL ([8]; 480/60 mg, Day 280): 98.2%
proportion of patients with testosterone ≦0.5 ng/mL ([8]; 480/60 mg, Day 308): 100%
proportion of patients with testosterone ≦0.5 ng/mL ([8]; 480/60 mg, Day 336): 100%
proportion of patients with testosterone ≦0.5 ng/mL ([8]; 480/60 mg, Day 364): 96.3%
number of patients with testosterone > 0.5 ng/mL ([8]; 480/60 mg, N=66): 4
coverage probability (confidence of true suppression rate being greater than 90%) ([8]; 480/60 mg, listed as degarelix): 79.9%
cumulative probability of testosterone ≦0.5 ng/mL, Kaplan-Meier estimate ([8]; Total (480 mg and 360 mg arms)): 92.8%
proportion of patients with testosterone ≦0.5 ng/mL ([8]; Total (both arms, after 240 mg starting dose), Day 28): 98.4%
proportion of patients with testosterone ≦0.5 ng/mL ([8]; Total (both arms, after 240 mg starting dose), Day 28, listed as degarelix): 98%
number of patients with testosterone > 0.5 ng/mL ([8]; Total, N=133): 11
level at 1 year ([9]; 360 mg): ~10 ng/mL
level at 1 year ([9]; 480 mg): ~13 ng/mL
